Experimental data as given in publication PMC5910229 (Neuron, 2018).

T1: RIM1 C2B (RIM1α C2B domain) (Rattus norvegicus, UniProt Q9JIR4)
T1 sequence (Q9JIR4 1447-1615): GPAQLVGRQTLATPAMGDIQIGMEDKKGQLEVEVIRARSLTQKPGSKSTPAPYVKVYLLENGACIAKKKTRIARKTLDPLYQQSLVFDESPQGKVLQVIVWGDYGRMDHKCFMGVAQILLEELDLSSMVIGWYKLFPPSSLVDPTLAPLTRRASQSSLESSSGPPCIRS


How the values were obtained:
[1] = target: T1, RIM1 C2B (RIM1α C2B domain); assay: 1H-15N HSQC NMR titration; assay type: binding
[2] = target: the molecule itself; assay: AUC

| Molecule | Kd [1] [µM] | Kd [2] [µM] |
| --- | --- | --- |
| CCCC(=O)OC[C@H](COP(=O)(O)O[C@@H]1[C@H](O)[C@H](O)[C@@H](OP(=O)(O)O)[C@H](OP(=O)(O)O)[C@H]1O)OC(=O)CCC [diC4-PIP2] | 32 to 79 |  |
| RIM1α C2B domain (GST tag cleaved) (domain or fragment, rat) GPAQLVGRQTLATPAMGDIQIGMEDKKGQLEVEVIRARSLTQKPGSKSTPAPYVKVYLLENGACIAKKKTRIARKTLDPLYQQSLVFDESPQGKVLQVIVWGDYGRMDHKCFMGVAQILLEELDLSSMVIGWYKLFPPSSLVDPTLAPLTRRASQSSLESSSGPPCIRS |  | ~3000 |
